Measured values: patent publication US6090787A, “Antithrombotic agents” (Eli Lilly and Company, priority 1999, dated 2000)
Square brackets hold non-standard residues; d marks the D form. Peptide text beside a SMILES is read from it. dPip = O=C(O)[C@H]1CCCCN1; Sar = CNCC(=O)O

What was measured:
[1] = target: T1, human thrombin (Homo sapiens, UniProt P00734); experiment: Inhibition of amidase activity of thrombin (Kass), chromogenic substrate; format: biochemical; details: apparent association constant, mean over a range of concentrations
T1 construct: purified human thrombin, Enzyme Research Laboratories; purchased Enzyme Research Laboratories, South Bend, Indiana
Outline: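 Bovine or human thrombin in 0.03 M Tris, 0.15 M NaCl, pH 7.4, with compound in 50% aqueous methanol and chromogenic substrate (0.25 mg/mL solution); hydrolysis followed at 405 nm (p-nitroaniline). Free thrombin read from standard curves, bound and free inhibitor derived; Kass is mean equilibrium constant over a compound concentration range, in L/mol.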

[2] = target: T2, Bovine trypsin (Bos taurus, UniProt P00760); experiment: Serine protease selectivity, Kass, trypsin chromogenic assay; format: biochemical; details: apparent association constant
T2 construct: purchased Worthington Biochemicals, Freehold, N.J
T2 sequence (P00760 24-246): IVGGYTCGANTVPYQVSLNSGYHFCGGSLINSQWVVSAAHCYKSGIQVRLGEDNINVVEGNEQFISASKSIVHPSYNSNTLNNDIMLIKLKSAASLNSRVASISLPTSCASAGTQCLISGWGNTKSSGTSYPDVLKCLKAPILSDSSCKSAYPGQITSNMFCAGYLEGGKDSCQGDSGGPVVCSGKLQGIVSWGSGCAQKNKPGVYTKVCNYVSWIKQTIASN
Outline: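 Run as the human thrombin chromogenic assay. Human factor Xa used N-Benzoyl-Ile-Glu-Gly-Arg-p-nitroanilide as substrate. Bovine trypsin used N-Benzoyl-Phe-Val-Arg-p-nitroanilide.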

[3] = Index of bioavailability (% Relative Activity from plasma TT AUC, oral vs i.v.); format: in vivo; details: dose-adjusted AUC of plasma TT time course, p.o. vs i.v. bolus
Method: Plasma thrombin time (TT) and activated partial thromboplastin time (APTT) are measured with a fibrometer. Blood is sampled from a jugular catheter and collected in syringe containing sodium citrate (3.8%, 1 part to 9 parts blood). […] Parke Davis) at 37° C. For APTT, plasma (0.1 mL) and APTT solution (0.1 mL, Organon Teknika) are incubated for 5 minutes (37° C.) and CaCl2 (0.01 mL, 0.025 M) is added to start coagulation. Assays are done in duplicate and averaged. A measure of bioactivity, plasma thrombin time (TT), served as a substitute for the assay of parent compound on the assumption that increments in TT resulted from thrombin inhibition by parent only. The time course of the effect of the thrombin inhibitor upon TT is determined after i.v. bolus administration to anesthetized rats and after oral treatment of fasted conscious rats. Due to limitations of blood volume and the number of points required to determine the time course from time of treatment to the time when the response returned to pretreatment values, two populations of rats are used. Each sample population represented alternating sequential time points. The average TT over the time course is used to calculate area under the curve (AUC). The index of bioavailability is calculated by the formula shown below and is expressed as percent relative activity. The area under the curve (AUC) of the plasma TT time course is determined and adjusted for the dose. This index of bioavailability is termed "% Relative Activity" and is calculated as [formula] Compound solutions are prepared fresh daily in normal saline and are injected as a bolus or are infused starting 15 minutes before and continuing throughout the experimental perturbation which is 15 minutes in the arteriovenous shunt model and 60 minutes in the FeCl3 model of arterial injury and in the spontaneous thombosis model. Bolus injection volume is 1 mL/kg for i.v., and 5 mL/kg for p.o. and infusion volume is 3 mL/hr.

| Structure (SMILES) | Enzyme Kass Human Thrombin [1] | Enzyme Kass Trypsin [2] | % oral/i.v. activity (Rat) [3] |
| --- | --- | --- | --- |
| CN(CC(=O)N[C@H](C=O)CCCNC(=N)N)C(=O)[C@H]1CCCCN1.Cl.Cl [Example 1, D-homoprolyl-N-methylglycyl-L-argininal dihydrochloride] (H-[dPip]-[Sar]-Arg-aldehyde) | 22 L/mol × 10^6 | 0.88 L/mol × 10^6 | 37% |
| CC(C)CCN(CC(=O)N[C@H](C=O)CCCN=C(N)N)C(=O)[C@H]1CCCCN1.Cl.Cl [Example 6, D--hPro--N(isoamyl)Gly--ArgH.2HCl] | 16 L/mol × 10^6 | 5.9 L/mol × 10^6 | 22% |
| Cl.Cl.N=C(N)NCCC[C@@H](C=O)NC(=O)CN(CCc1ccccc1)C(=O)[C@H]1CCCCN1 [Example 8, D-homoprolyl-N-(2-phenylethyl)glycyl-L-argininal dihydrochloride] | 87 L/mol × 10^6 | 2.7 L/mol × 10^6 | 17% |
